Among the data in patent publication US20240425483A1, “INDOLINES AS PROTAC COMPOUNDS” (NeoPhore Limited, priority 2021, published 2024) are remaining activity values, retold here.

In the experiment the target is T1, PMS2 protein (Homo sapiens, UniProt P54278).
T1 construct: host or cells: SW620 human colorectal carcinoma cells
T1 sequence (P54278 1-862): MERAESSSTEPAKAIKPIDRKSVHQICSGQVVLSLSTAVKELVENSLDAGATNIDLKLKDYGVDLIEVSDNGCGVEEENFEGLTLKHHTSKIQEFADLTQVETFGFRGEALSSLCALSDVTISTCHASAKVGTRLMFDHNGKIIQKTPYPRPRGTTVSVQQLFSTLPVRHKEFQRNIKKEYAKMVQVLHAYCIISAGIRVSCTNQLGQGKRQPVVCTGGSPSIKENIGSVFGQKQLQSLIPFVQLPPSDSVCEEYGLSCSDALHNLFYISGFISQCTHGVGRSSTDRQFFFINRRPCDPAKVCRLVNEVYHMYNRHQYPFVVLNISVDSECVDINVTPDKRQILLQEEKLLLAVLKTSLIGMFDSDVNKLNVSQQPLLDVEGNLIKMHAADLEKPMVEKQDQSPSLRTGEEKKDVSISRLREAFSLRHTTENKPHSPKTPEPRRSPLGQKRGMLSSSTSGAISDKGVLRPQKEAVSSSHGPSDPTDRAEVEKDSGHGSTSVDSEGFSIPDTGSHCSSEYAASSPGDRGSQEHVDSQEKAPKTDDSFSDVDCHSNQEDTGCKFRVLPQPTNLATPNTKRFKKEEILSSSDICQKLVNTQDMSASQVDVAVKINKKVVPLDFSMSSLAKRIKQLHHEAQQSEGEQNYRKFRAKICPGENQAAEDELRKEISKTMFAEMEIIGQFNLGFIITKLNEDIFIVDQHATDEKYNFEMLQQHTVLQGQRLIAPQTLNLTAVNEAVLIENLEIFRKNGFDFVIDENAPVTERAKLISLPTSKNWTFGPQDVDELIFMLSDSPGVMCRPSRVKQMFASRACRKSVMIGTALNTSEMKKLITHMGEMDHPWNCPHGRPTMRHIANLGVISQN
Kind of experiment: PROTAC screening in SW620 human colorectal carcinoma cells, PMS2 protein level by JESS Western blot. It counts as cell-based. Conditions: SW-620, 24 h, 1 uM compound, normalised to actin and DMSO control, Table A1. As to the method:
PROTAC Screening Protocol Using SW620 Human Colorectal Carcinoma Cells
SVW620 cells (ATCC/[…]) were cultured in T75 Falcon flasks in culture media (F12/DMEM 1:1 media, 10% FCS, +L-G supplement). Cells were split twice a week, for a maximum of 6 weeks. Media was aspirated, and cells washed with 10 mL of sterile PBS. PBS was aspirated, and cells incubated with 1.5 mL TrypLE for up to 5 minutes at 37° C., 5% CO2. Once cells had detached, TrypLE was neutralised with 10 mL culture media and cells mixed 1:1 with Trypan blue and quantified using a Luna cell counter. Cells were then seeded into fresh T75 flasks with 1×10^6 cells and 10 mL culture media.
SW620 cells, cultured and counted as above, were used to seed 12 well plates at a density of 1.5×10^5 cells/well and incubated overnight at 37° C., 5% CO2. Test compounds were solubilized in DMSO to a stock concentration of 10 mM and serially diluted in DMSO and media to their test concentration; the final concentration of DMSO was 0.1% (v/v). Each concentration was tested in triplicate. SW620 cells were incubated with test compound for 24 hours at 37° C., 5% CO2. Media was aspirated from each well, and each well washed with 1 mL ice cold PBS. PBS was then aspirated, and 50 μL of cold lysis buffer (RIPA buffer supplemented with 1× protease inhibitors, Benzonase, MgCl) was added to each well; plates were then incubated on ice for 5 minutes. Cells were scraped using a pipette tip before being transferred to a fresh Eppendorf. Samples were spun at maximum speed in a benchtop centrifuge for 5 minutes at 4° C. and supernatant was then transferred to fresh tubes. Samples were stored at −80° C. until analysis.
Bicinchonininic acid (BCA) protein assay standards (2-0.125 mg/mL BSA) were prepared in advance. 6 μL of each standard was pipetted in duplicate into rows A and B of a 384-well assay plate. Test samples were diluted in lysis buffer (1:3-1:10) in a 384-well plate in duplicate. BCA Reagents were combined 50:1, Part A:Part B and 50 μL added to each well. Plates were incubated for 30 min at 37° C. in a plate incubator and read using a BCA protein 384 protocol on an EnSpire plate reader. Protein concentrations were calculated from a standard curve.
JESS Western Blot Protocol
Protein lysates were prepared using Protein Simple EZ standard pack reagents: 40 μL distilled H2O was added to a DTT tube (clear) and treated with 20 μL 10× sample buffer and 20 μL DTT to 5×MM tube (pink). 20 μL dH2O was added to biotinylated ladder tube (green).
Test samples were prepared by dilution to the required concentration (0.1 mg/mL) in 0.1× sample buffer. 1.25 μL 5× fluorescent master mix from the EZ standard pack was added to 5 μL sample for each lane to be loaded (e.g. 2.5 μL+10 μL if loading same sample into 2 wells). Samples were vortexed, briefly spun down and heated at 95° C. for 5 min in a PCR machine then vortexed again and briefly spun down before loading onto JESS cassettes (catalogue No: SM-W004) according to manufacturer's instructions (https://www.proteinsimple.com/technical_library.html?product=simplewestern&def_list=list). Protein expression was determined by the peak area of the target protein signal. Peak area of the target protein was normalised to peak area of the loading control (actin) and to DMSO control.
By remaining activity is commonly meant what remains of the control signal, in per cent. A low value points to a large loss of activity. Consider `Cc1ncsc1-c1ccc(CNC(=O)[C@@H]2C[C@@H](O)CN2C(=O)[C@@H](NC(=O)CCCCCCC(=O)N2CCN(Cc3ccc4c(c3)CN(C(=O)c3c(O)cc(O)c(C)c3OCc3ccccc3)C4)CC2)C(C)(C)C)cc1` [Example 25, (2S,4R)-1-[(2S)-2-[[8-[4-[[2-(2-Benzyloxy-4,6-dihydroxy-3-methyl-benzoyl)isoindolin-5-yl]methyl]piperazin-1-yl]-8-oxo-octanoyl]amino]-3,3-dimethyl-butanoyl]-4-hydroxy-N-[[4-(4-methylthiazol-5-yl)phenyl]methyl]pyrrolidine-2-carboxamide], for which the remaining activity at 1 µM is < 10%.

As for `Cc1ncsc1-c1ccc(CNC(=O)[C@@H]2C[C@@H](O)CN2C(=O)[C@@H](NC(=O)CCCCCC(=O)N2CCN(Cc3ccc4c(c3)CN(C(=O)c3c(O)cc(O)c(C)c3OCC3CCCCC3)C4)CC2)C(C)(C)C)cc1` [Example 26, (2S,4R)-1-[(2S)-2-[[7-[4-[[2-[2-(Cyclohexylmethoxy)-4,6-dihydroxy-3-methyl-benzoyl]isoindolin-5-yl]methyl]piperazin-1-yl]-7-oxo-heptanoyl]amino]-3,3-dimethyl-butanoyl]-4-hydroxy-N-[[4-(4-methylthiazol-5-yl)phenyl]methyl]pyrrolidine-2-carboxamide], the remaining activity at 1 µM was < 10%.

In the case of `Cc1ncsc1-c1ccc(CNC(=O)[C@@H]2C[C@@H](O)CN2C(=O)[C@@H](NC(=O)CCCCCCC(=O)N2CCN(Cc3ccc4c(c3)CN(C(=O)c3c(O)cc(O)c(C)c3OCC3CCCCC3)C4)CC2)C(C)(C)C)cc1` [Example 27, (2S,4R)-1-[(2S)-2-[[8-[4-[[2-[2-(Cyclohexylmethoxy)-4,6-dihydroxy-3-methyl-benzoyl]isoindolin-5-yl]methyl]piperazin-1-yl]-8-oxo-octanoyl]amino]-3,3-dimethyl-butanoyl]-4-hydroxy-N-[[4-(4-methylthiazol-5-yl)phenyl]methyl]pyrrolidine-2-carboxamide], the remaining activity at 1 µM is < 10%.

`Cc1ncsc1-c1ccc(CNC(=O)[C@@H]2C[C@@H](O)CN2C(=O)[C@@H](NC(=O)CCCCCCCC(=O)N2CCN(Cc3ccc4c(c3)CN(C(=O)c3c(O)cc(O)c(C)c3OCC3CCCCC3)C4)CC2)C(C)(C)C)cc1` [Example 28, (2S,4R)-1-[(2S)-2-[[9-[4-[[2-[2-(Cyclohexylmethoxy)-4,6-dihydroxy-3-methyl-benzoyl]isoindolin-5-yl]methyl]piperazin-1-yl]-9-oxo-nonanoyl]amino]-3,3-dimethyl-butanoyl]-4-hydroxy-N-[[4-(4-methylthiazol-5-yl)phenyl]methyl]pyrrolidine-2-carboxamide]: the remaining activity at 1 µM is < 10%.

Regarding `Cc1ncsc1-c1ccc(CNC(=O)[C@@H]2C[C@@H](O)CN2C(=O)[C@@H](NC(=O)CCCCCCCCC(=O)N2CCN(Cc3ccc4c(c3)CN(C(=O)c3c(O)cc(O)c(C)c3OCC3CCCCC3)C4)CC2)C(C)(C)C)cc1` [Example 29, (2S,4R)-1-[(2S)-2-[[10-[4-[[2-[2-(Cyclohexylmethoxy)-4,6-dihydroxy-3-methyl-benzoyl]isoindolin-5-yl]methyl]piperazin-1-yl]-10-oxo-decanoyl]amino]-3,3-dimethyl-butanoyl]-4-hydroxy-N-[[4-(4-methylthiazol-5-yl)phenyl]methyl]pyrrolidine-2-carboxamide], the remaining activity at 1 µM was < 10%.

On to `Cc1ncsc1-c1ccc(CNC(=O)[C@@H]2C[C@@H](O)CN2C(=O)[C@@H](NC(=O)CCCCCCCCCC(=O)N2CCN(Cc3ccc4c(c3)CN(C(=O)c3c(O)cc(O)c(C)c3OCC3CCCCC3)C4)CC2)C(C)(C)C)cc1` [Example 30, (2S,4R)-1-[(2S)-2-[[11-[4-[[2-[2-(Cyclohexylmethoxy)-4,6-dihydroxy-3-methyl-benzoyl]isoindolin-5-yl]methyl]piperazin-1-yl]-11-oxo-undecanoyl]amino]-3,3-dimethyl-butanoyl]-4-hydroxy-N-[[4-(4-methylthiazol-5-yl)phenyl]methyl]pyrrolidine-2-carboxamide], for which the remaining activity at 1 µM was < 10%.
